Molecules are shown by their SMILES.

Experiment [1] addresses T1, p-AXL (Homo sapiens, UniProt P30530).
T1 construct: expressed in transfected cells; host or cells: HEK293T
T1 sequence (P30530 26-894): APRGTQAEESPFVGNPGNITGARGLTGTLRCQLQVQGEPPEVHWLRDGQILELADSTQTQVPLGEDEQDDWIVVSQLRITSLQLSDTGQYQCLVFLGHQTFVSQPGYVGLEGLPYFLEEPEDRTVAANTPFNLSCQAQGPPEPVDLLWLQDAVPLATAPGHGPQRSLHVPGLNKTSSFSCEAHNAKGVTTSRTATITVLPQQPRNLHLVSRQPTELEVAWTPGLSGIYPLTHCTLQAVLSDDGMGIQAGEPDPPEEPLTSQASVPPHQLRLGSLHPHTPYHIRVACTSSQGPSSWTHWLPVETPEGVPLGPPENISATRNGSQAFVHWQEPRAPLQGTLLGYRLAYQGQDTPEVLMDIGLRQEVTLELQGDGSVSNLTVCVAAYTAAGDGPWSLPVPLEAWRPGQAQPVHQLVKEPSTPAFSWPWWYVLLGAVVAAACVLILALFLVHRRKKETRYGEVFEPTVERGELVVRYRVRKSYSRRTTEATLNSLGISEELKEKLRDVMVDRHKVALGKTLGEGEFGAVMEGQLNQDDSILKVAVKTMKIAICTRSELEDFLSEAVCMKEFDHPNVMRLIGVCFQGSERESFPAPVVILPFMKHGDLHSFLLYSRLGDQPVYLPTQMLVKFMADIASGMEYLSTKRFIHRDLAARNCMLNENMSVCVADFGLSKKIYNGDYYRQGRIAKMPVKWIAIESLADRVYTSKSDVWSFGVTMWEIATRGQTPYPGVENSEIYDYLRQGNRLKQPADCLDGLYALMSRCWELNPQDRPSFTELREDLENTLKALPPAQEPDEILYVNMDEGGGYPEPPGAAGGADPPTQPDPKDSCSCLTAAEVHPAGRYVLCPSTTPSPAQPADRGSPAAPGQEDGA
Briefly: Axl phosphorylation inhibition ELISA in HEK293T cells transfected with NanoLuc-tagged AXL. The class given is cell-based. To be noted: 1 h compound incubation, media (OptiMEM). An outline of the steps: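 Phospho-AXL detected by luminescence of NanoLuc tag after capture of cell lysate on biotinylated anti-phospho-tyrosine mAb plates (2 h). Lysates came from transiently transfected HEK293T cells treated 1 h at 37° C with serial 2-fold dilutions (22 points). IC50 by standard 4-parameter logistic fitting.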
A general note: ELISA stands for enzyme-linked immunosorbent assay.

The target of experiment [2] is T2, Axl (Homo sapiens, UniProt P30530).
T2 sequence (P30530 26-894): T1 sequence (P30530 26-894)
Nature of the experiment: Axl NanoBRET intracellular kinase assay (intracellular binding, K-5 tracer displacement). Conditions: HEK-293 cells transfected with Axl-NanoLuc, 0.35 μM K-5 NanoBRET tracer; read-out: Cell Binding AXL. Also on record: host or cells: HEK-293. The procedure:
Measuring Intracellular Binding of Axl Inhibitors
Axl NanoBRET™ intracellular kinase assay (Promega, N2540) was performed according to manufacturer's recommendation. In brief, HEK-293 cells are transiently transfected with Ax1-NanoLuc fusion vector (Promega, NV1071), utilizing Fugene HD transfection reagent (Promega, E2311) a day before experiment following manufacturer's recommendation.
The day of the assay, the cells were collected and resuspended in Opti-MEM media (ThermoFisher, 31985070) at 2e5 cells/mL concentration. Testing compounds were serial diluted and dispensed into a white 384 well polystyrene plate at 200 nL in 100% DMSO. 40 μL of resuspended cells is then added per well for a final condition of 8K cells/well with 0.5% DMSO. After one-hour compound pre-incubation at 37° C. and 5% CO2, cells were further incubated with 0.35 μM K-5 NanoBRET tracer for two-hours at 37° C. and 5% CO2. […] of 3× substrate plus Inhibitor solution was prepared according to kits manual and added to the cells followed by a 30 second pulse centrifugation spin. The plate was then immediately read utilizing an Envision (Perkin Elmer) plate reader. The BRET signal is measured by taking the ratio of the emissions reading at 610 nm and 450 nm. Compound binding is based on the decrease BRET signal caused by the displacement of the K-5 tracer. […] ICso value of compounds was determined by 4-parameter non-linear regression fitting of percent activity in GraphPad Prism software.
In general terms: BRET reads energy transfer from a luciferase to a nearby fluorophore.

For the compound `c1ccc(-n2cc(-c3n[nH]c4ncc(-c5ccc6c(c5)CC[C@@H](N5C7COCC5C7)CC6)cc34)cn2)nc1` [Example 168, 6-[(7S)-2-{3-[1-(Pyridin-2-yl)-1H-pyrazol-4-yl]-1H-pyrazolo[3,4-b]pyridin-5-yl}-6,7,8,9-tetrahydro-5H-benzo[7]annulen-7-yl]-3-oxa-6-azabicyclo[3.1.1]heptane], the results for the IC50 in experiment [1] and in experiment [2] were 100 to 1000 nM and less than 100 nM, respectively.

Turning to `C[C@@H]1CCCN1[C@@]1(C)CCc2ccc(-c3cnc4[nH]cc(-c5ccc(-c6ccccn6)cc5)c4c3)cc2CC1` [Example 156, 2-(4-{5-[(7S)-7-Methyl-7-[(2R)-2-methylpyrrolidin-1-yl]-6,7,8,9-tetrahydro-5H-benzo[7]annulen-2-yl]-1H-pyrrolo[2,3-b]pyridin-3-yl}phenyl)pyridine], the IC50 in experiment [1] was 100 to 1000 nM; in experiment [2], less than 100 nM.

As to `Cc1nccnc1-c1ccc(-c2n[nH]c3ncc(-c4ccc5c(c4)CC[C@@H](N4C6COCC4C6)CC5)cc23)cc1` [Example 175, 6-[(7S)-2-{3-[4-(3-Methylpyrazin-2-yl)phenyl]-1H-pyrazolo[3,4-b]pyridin-5-yl}-6,7,8,9-tetrahydro-5H-benzo[7]annulen-7-yl]-3-oxa-6-azabicyclo[3.1.1]heptane], the IC50 in experiment [1] and in experiment [2] was less than 100 nM in each case.

For `Cc1cccnc1-c1ccc(-c2c[nH]c3ncc(-c4ccc5c(c4)CC[C@@H](N4CCCC4)CC5)cc23)cc1` [Example 173, 3-Methyl-2-(4-{5-[(7S)-7-(pyrrolidin-1-yl)-6,7,8,9-tetrahydro-5H-benzo[7]annulen-2-yl]-1H-pyrrolo[2,3-b]pyridin-3-yl}phenyl)pyridine], the IC50 in experiment [1] and in experiment [2] was less than 100 nM each time.

Turning to `CN(C)C(=O)c1ccccc1-c1ccc(-c2c[nH]c3ncc(-c4ccc5c(c4)CC[C@@H](N4C6COCC4C6)CC5)cc23)cn1` [Example 170, N,N-Dimethyl-2-(5-{5-[(7S)-7-{3-oxa-6-azabicyclo[3.1.1]heptan-6-yl}-6,7,8,9-tetrahydro-5H-benzo[7]annulen-2-yl]-1H-pyrrolo[2,3-b]pyridin-3-yl}pyridin-2-yl)benzamide], the IC50 is 100 to 1000 nM in experiment [1] and less than 100 nM in experiment [2].

Regarding `O=C(c1cccnc1-c1ccc(-c2c[nH]c3ncc(-c4ccc5c(c4)CC[C@@H](N4C6COCC4C6)CC5)cc23)cc1)N1CCCC1` [Example 171, 6-[(7S)-2-(3-{4-[3-(Pyrrolidine-1-carbonyl)pyridin-2-yl]phenyl}-1H-pyrrolo[2,3-b]pyridin-5-yl)-6,7,8,9-tetrahydro-5H-benzo[7]annulen-7-yl]-3-oxa-6-azabicyclo[3.1.1]heptane], the IC50 in experiment [1] and in experiment [2] was less than 100 nM each time.

Take `Cn1nncc1-c1ccc(-c2n[nH]c3ncc(-c4ccc5c(c4)CC[C@@H](N4C6COCC4C6)CC5)cc23)cc1` [Example 13, 6-[(7S)-2-{3-[4-(1-Methyl-1H-1,2,3-triazol-5-yl)phenyl]-1H-pyrazolo[3,4-b]pyridin-5-yl}-6,7,8,9-tetrahydro-5H-benzo[7]annulen-7-yl]-3-oxa-6-azabicyclo[3.1.1]heptane]: the IC50 in experiment [1] is 100 to 1000 nM; in experiment [2], less than 100 nM.

With `COc1cccnc1-c1ccc(-c2c[nH]c3ncc(-c4ccc5c(c4)CC[C@@H](N4C6COCC4C6)CC5)cc23)cc1` [Example 164, 6-[(7S)-2-{3-[4-(3-Methoxypyridin-2-yl)phenyl]-1H-pyrrolo[2,3-b]pyridin-5-yl}-6,7,8,9-tetrahydro-5H-benzo[7]annulen-7-yl]-3-oxa-6-azabicyclo[3.1.1]heptane], the IC50 in experiment [1] and in experiment [2] was less than 100 nM throughout.

Take `CN(C)C(=O)c1cccc(-c2ccc(-c3n[nH]c4ncc(-c5ccc6c(c5)CC[C@@H](N5C7COCC5C7)CC6)cc34)cc2)n1` [Example 94, N,N-Dimethyl-6-(4-{5-[(7S)-7-{3-oxa-6-azabicyclo[3.1.1]heptan-6-yl}-6,7,8,9-tetrahydro-5H-benzo[7]annulen-2-yl]-2H-pyrazolo[3,4-b]pyridin-3-yl}phenyl)pyridine-2-carboxamide]: the IC50 was 100 to 1000 nM in experiment [1] and less than 100 nM in experiment [2].

`c1ccc(-c2ccc(-c3n[nH]c4ncc(-c5ccc6c(c5)CC[C@@H](N5C7COCC5C7)CC6)cc34)cc2)nc1` [Example 154, 6-[(7S)-2-{3-[4-(Pyridin-2-yl)phenyl]-2H-pyrazolo[3,4-b]pyridin-5-yl}-6,7,8,9-tetrahydro-5H-benzo[7]annulen-7-yl]-3-oxa-6-azabicyclo[3.1.1]heptane]: the IC50 in experiment [1] and in experiment [2] was less than 100 nM each time.

Turning to `Cc1cncnc1-c1ccc(-c2n[nH]c3ncc(-c4ccc5c(c4)CC[C@@H](N4C6COCC4C6)CC5)cc23)cc1` [Example 174, 6-[(7S)-2-{3-[4-(5-Methylpyrimidin-4-yl)phenyl]-1H-pyrazolo[3,4-b]pyridin-5-yl}-6,7,8,9-tetrahydro-5H-benzo[7]annulen-7-yl]-3-oxa-6-azabicyclo[3.1.1]heptane], the IC50 in experiment [1] and in experiment [2] was less than 100 nM in each case.

With `CN(C)C(=O)c1ccccc1-c1ccc(-c2n[nH]c3ncc(-c4ccc5c(c4)CC[C@@H](N4C6COCC4C6)CC5)cc23)cc1` [Example 12, N,N-Dimethyl-4′-{5-[(7S)-7-{3-oxa-6-azabicyclo[3.1.1]heptan-6-yl}-6,7,8,9-tetrahydro-5H-benzo[7]annulen-2-yl]-2H-pyrazolo[3,4-b]pyridin-3-yl}-[1,1′-biphenyl]-2-carboxamide], the IC50 in experiment [1] and in experiment [2] was less than 100 nM each time.

On to `Cc1cc(-c2n[nH]c3ncc(-c4ccc5c(c4)CC[C@@H](N4C6COCC4C6)CC5)cc23)ccc1-c1ccccn1` [Example 159, 6-[(7S)-2-{3-[3-Methyl-4-(pyridin-2-yl)phenyl]-2H-pyrazolo[3,4-b]pyridin-5-yl}-6,7,8,9-tetrahydro-5H-benzo[7]annulen-7-yl]-3-oxa-6-azabicyclo[3.1.1]heptane], for which the IC50 in experiment [1] and in experiment [2] was 100 to 1000 nM each time.

For `Cc1cccnc1-c1ccc(-c2n[nH]c3ncc(-c4ccc5c(c4)CC[C@@](C)(N4CCC[C@H]4C)CC5)cc23)cc1` [Example 163, 3-Methyl-2-(4-{5-[(7S)-7-methyl-7-[(2R)-2-methylpyrrolidin-1-yl]-6,7,8,9-tetrahydro-5H-benzo[7]annulen-2-yl]-2H-pyrazolo[3,4-b]pyridin-3-yl}phenyl)pyridine], the IC50 in experiment [1] and in experiment [2] was less than 100 nM each time.

For `c1cncc(-c2ccc(-c3c[nH]c4ncc(-c5ccc6c(c5)CC[C@@H](N5C7COCC5C7)CC6)cc34)cc2)c1` [Example 158, 6-[(7S)-2-{3-[4-(Pyridin-3-yl)phenyl]-1H-pyrrolo[2,3-b]pyridin-5-yl}-6,7,8,9-tetrahydro-5H-benzo[7]annulen-7-yl]-3-oxa-6-azabicyclo[3.1.1]heptane], the IC50 in experiment [1] and in experiment [2] was 100 to 1000 nM throughout.

With `CC(C)(O)c1cccnc1-c1ccc(-c2n[nH]c3ncc(-c4ccc5c(c4)CC[C@@H](N4C6COCC4C6)CC5)cc23)cc1` [Example 10, 2-[2-(4-{5-[(7S)-7-{3-Oxa-6-azabicyclo[3.1.1]heptan-6-yl}-6,7,8,9-tetrahydro-5H-benzo[7]annulen-2-yl]-1H-pyrazolo[3,4-b]pyridin-3-yl}phenyl)pyridin-3-yl]propan-2-ol], the IC50 in experiment [1] and in experiment [2] was less than 100 nM each time.

Source of the values: patent publication US12195482B1 (Arcus Biosciences, Inc., priority 2022, dated 2025).
